Tests used:
CD8+ CAR-T cells = assay: Glycolytic metabolism (ECAR, Seahorse) of CD8+ CAR-T cells expanded with inhibitor; assay type: cell-based, human; settings: CD8+ CAR-T cells expanded with 1 μM Compound 63; 3 donors
Protocol: (§1) Separate compositions of CD4+ and CD8+ cells were isolated from three human donors, activated and transduced with a viral vector encoding an anti-CD19 CAR substantially as described in Example 2. After transduction, the CD4+ and CD8+ T cells derived from each donor were separately incubated for 8 days in the presence of a mTOR kinase inhibitor to expand T cells substantially as described in Example 2, except in the presence of 200 nM PI-103, 1 μM Compound 63, or with DMSO vehicle or media only controls. CD4+ and CD8+ T cells from each donor were then separately harvested, formulated, and cryofrozen. […] Functional activities of the generated anti-CD19 CAR-T cell compositions were assessed.
Changes in cellular glycolytic metabolism in response to T cell receptor (TCR) stimulation were measured in CD8+ CAR-T cells from the generated anti-CD19 CAR-T cell composition prior to combining with CD4+ T cells. Glycolytic metabolism was assessed by measuring the extracellular acidification rate (ECAR) in CD8+ CAR-T cells in real time with an extracellular flux bioanalyzer (Seahorse Bioanalyzer, Agilent Technologies). […] Area under the curve (AUC) for the ECAR rates (mpH/min) from 0 to 76 minutes of the assay and maximal ECAR glycolytic burst ratio relative to media controls (n=3 donors) were determined.

caspase 3 = assay: Intracellular caspase 3 in thawed CAR-T cells prepared with inhibitor; assay type: cell-based, human; settings: thawed CAR-T cells prepared with 1 μM Compound 63 vs DMSO; three donors
Protocol: Separate compositions of CD4+ and CD8+ cells were selected from isolated PBMCs from a leukapheresis sample from the same human donor by immunoaffinity based selection, and the selected cell compositions were cryofrozen. The separate compositions of CD4+ and CD8+ T cells were subsequently thawed and mixed at a ratio of 1:1 of viable CD4+ T cells to viable CD8+ T cells. In this study, the mixed CD4+ and CD8+ cell populations were incubated in the presence of Compound 63, PI103 or no inhibitor (DMSO vehicle control) beginning at the initiation of stimulation. In more detail, the mixed CD4+ and CD8+ T cell composition was stimulated (in the presence or absence of an inhibitor, as indicated) in the presence of paramagnetic polystyrene-coated beads with attached anti-CD3 and anti-CD28 antibodies for between 18 to 30 hours, and were then transduced with a lentiviral vector encoding an anti-CD19 CAR. The CAR contained an scFv antigen-binding domain specific for CD19 (derived from FMC63), a CD28 transmembrane region, a 4-1BB costimulatory signaling region, and a CD3-zeta derived intracellular signaling domain. The cells were then expanded in the presence of cytokines typically for approximately 6-7 days. […]
The cells were assessed by flow cytometry for levels of the cell surface markers and levels of pro-apoptotic marker, intracellular caspase 3.

[1] = test system: engineered CD8+ and CD4+ T cells; assay: T cell expansion of anti-CD19 CAR-transduced CD4+ and CD8+ T cells incubated with mTOR kinase inhibitor; assay type: cell-based; settings: human
Protocol: Separate compositions of CD4+ and CD8+ cells were isolated from human leukapheresis samples by immunoaffinity-based enrichment and cryofrozen. The CD4+ and CD8+ cells of the compositions were subsequently thawed and activated by separately culturing the cells under stimulating conditions in the presence of anti-CD3/anti-CD28 magnetic beads and recombinant IL-2, IL-7 and/or IL-15 for approximately 20 hours. Cells were then transduced with a viral vector encoding an anti-CD19 chimeric antigen receptor (CAR). After transduction, the CD4+ and CD8+ cells were separately incubated in the presence of an mTOR kinase inhibitor, either Compound 155, Compound 63, or Compound 246, at various concentrations. For controls, cells were incubated with media only, DMSO vehicle, or with 200 nM PI-103. Incubation was carried out at 37° C. for approximately 8 days post-thaw with one media change, at which point the compounds were re-added to the culture media at the same concentration.
The percent of CD8+ and CD4+ T cells at the end of the process as compared to the amount of cells seeded for culture following the transduction is shown in FIG. 2. The cutoff for selecting a tolerated dose was set at 70% of the mean values of the media and DMSO controls.

anti-CD19 CAR-T cells = assay: Serial stimulation assay with irradiated K562-CD19 target cells; assay type: cell-based, human; settings: four rounds of restimulation with K562-CD19 cells; relative to media only
Protocol: as §1
The ability of cells to expand ex vivo following repeated stimulations in some aspects can indicate capacity of CAR-T cells to persist (e.g., following initial activation) and/or is indicative of function in vivo (Zhao et al. (2015) Cancer Cell, 28:415-28). […] Every 3-4 days, T cells were harvested, counted, and restimulated with new target cells using the same culture conditions after resetting cell number to initial seeding density for each round. […] The population doublings (FIG. 7A) and area under the curves (AUC) as a function of population doublings over time relative to AUC of cells expanded with media only (FIG. 7B) were determined.

## CC(C)c1ccccc1-n1c(=O)[nH]c2c(C(N)=O)nc(-c3cccc(O)c3)nc21 [Compound 63, 2-(3-Hydroxyphenyl)-9-(2-isopropylphenyl)-8-oxo-8,9-dihydro-7H-purine-6-carboxamide]
CD8+ CAR-T cells
  glycolytic burst upon TCR stimulation (ECAR AUC, ECAR ratio) relative to media control: trend towards enhanced glycolytic burst
Caspase 3
  levels of pro-apoptotic marker intracellular caspase 3: decreased levels
[1]
  highest tolerated dose resulting in similar CD8 and CD4 T cell expansion as vehicle control: 1 µM
anti-CD19 CAR-T cells
  mean AUC of population doublings compared to T cells expanded with PI-103 or DMSO vehicle: larger mean AUC
